# Laboratory results taken from US20030130280A1, “Treatment of acute myeloid leukemia with indolinone compounds” (SUGEN, Inc., priority 2001, published 2003).
# “Also recorded” adds a separate entry of the source.
# Assays:
# Stat5 = Stat5 activation by FLT-3 ligand in OC1-AML5 cells (IP/Western, Western, gel shift); format: cell-based; details: FLT-3 ligand stimulated
# Excerpt: (§1) Activation of downstream pathways by FLT-3 ligand was also investigated, specifically for Stat5 and erk. Stat5 and Erk are downstream mediators of RTK signaling, and may provide readouts for FLT-3 signaling. Stat 5 is a transcription factor which regulates many genes involves in cell survival and proliferation. Erk½ are kinases on the Raf signaling pathway.
# erk½ = erk½ phosphorylation in OC1-AML5 cells; format: cell-based
# Excerpt: as §1
# MV4; 11 = assay: VEGF production, MV4;11 cells; format: cell-based; details: for VEGF %: 0 uM = 100
# [1] = Bone marrow model, survival; format: in vivo, NOD-SCID mice; details: orally once daily
# Method: NOD-SCID mice were pretreated with cyclophosphamide (Neosar, Pharmacia, Kalamazoo, Mich.) by intraperitoneal injection of 150 mg/kg/day for 2 days ^(46), followed by 24 hours of rest prior to intravenous (i.v.) injection of 5×10^6 cells via the tail vein. At experimental endpoints, mice were anesthetized, followed by terminal blood collection via intracardiac puncture. Bone marrow cell suspensions were prepared by flushing mouse femurs with cold, sterile PBS. For all studies, a paired Student's t test was used to assess differences between treated and control groups (P<0.05 was considered significant).
# OC1-AML5 = assay: VEGF production, OC1-AML5 cells; format: cell-based; details: for VEGF %: 0 uM = 100
# RS411 (wild type FLT-3) = assay: Cell proliferation, RS411; format: cell-based
# MV411 (ITD mutant FLT-3) = assay: Apoptosis by PARP cleavage and caspase 3 staining, ITD-mutant cells; format: cell-based; details: PARP cleavage, caspase 3 staining
# Method: Apoptosis was measured by analysis of PARP cleavage and by caspase 3 staining.
# Wild-type FLT-3 = biological target: T1, Wild-type FLT-3 (Homo sapiens, UniProt P36888); assay: FLT-3 phosphorylation by immunoprecipitation/Western in RS411 cells; format: cell-based; for Wild-type FLT-3 (inhibition of phosphorylation): key: +++: very strong inhibition; ++: inhibition; +/−: weak inhibition; −: no inhibition
# T1 construct: host or cells: RS411 (RS4;11)
# T1 sequence (P36888 27-993): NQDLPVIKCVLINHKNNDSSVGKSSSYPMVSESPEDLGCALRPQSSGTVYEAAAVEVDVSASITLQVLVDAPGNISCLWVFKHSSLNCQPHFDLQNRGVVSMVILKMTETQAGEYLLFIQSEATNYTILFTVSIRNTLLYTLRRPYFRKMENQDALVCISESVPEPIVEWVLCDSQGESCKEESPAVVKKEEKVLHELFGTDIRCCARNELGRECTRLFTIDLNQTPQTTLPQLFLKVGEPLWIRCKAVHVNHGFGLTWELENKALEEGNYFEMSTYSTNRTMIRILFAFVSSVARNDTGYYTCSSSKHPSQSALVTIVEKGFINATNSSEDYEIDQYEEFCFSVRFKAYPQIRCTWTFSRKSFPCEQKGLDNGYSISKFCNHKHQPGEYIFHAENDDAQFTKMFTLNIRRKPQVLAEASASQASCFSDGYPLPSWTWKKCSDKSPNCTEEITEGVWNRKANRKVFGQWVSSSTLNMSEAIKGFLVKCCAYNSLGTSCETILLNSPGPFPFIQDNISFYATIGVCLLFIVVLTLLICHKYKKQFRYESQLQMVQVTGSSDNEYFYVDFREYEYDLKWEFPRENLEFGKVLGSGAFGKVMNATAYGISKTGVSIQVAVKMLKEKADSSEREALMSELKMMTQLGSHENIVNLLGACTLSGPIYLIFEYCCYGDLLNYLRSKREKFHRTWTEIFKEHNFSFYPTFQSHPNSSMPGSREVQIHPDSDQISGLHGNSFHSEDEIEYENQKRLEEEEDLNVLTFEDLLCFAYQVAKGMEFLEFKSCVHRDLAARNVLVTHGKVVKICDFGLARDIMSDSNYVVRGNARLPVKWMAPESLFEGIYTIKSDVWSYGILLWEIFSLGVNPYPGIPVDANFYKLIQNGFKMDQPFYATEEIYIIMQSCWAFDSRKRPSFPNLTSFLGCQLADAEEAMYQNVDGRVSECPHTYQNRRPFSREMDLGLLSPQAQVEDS
# Method: FLT-3 was immunoprecipitated from lysates with a commercially available antibody. Proteins were separated by SDS-polyacrylamide gel electrophoresis, transferred to membranes analyzed by Western blotting for phosphotyrosine and subsequently for total FLT-3 protein as control. […]
# Immunoprecipitation and Western Blot (IP/W) analysis: Cells were lysed in lysis buffer (20 mM Tris, pH 7.5; 137 mM NaCl; 10% glycerol; 1% NP-40; 0.1% SDS; 2 mM EDTA) containing protease and phosphatase inhibitors (50 mM sodium fluoride, 1 mM sodium orthovanadate, 2 mM Pefabloc, […], […], […], 4 mM leupeptin, and 4 mM pepstatin A). Equivalent amounts of protein were separated by SDS-PAGE, then transferred to nitrocellulose membranes. For analysis of FLT3 phosphorylation, equivalent amounts of protein from each sample were immunoprecipitated overnight at 4*C. with an agarose-conjugated anti-FLT3 antibody (Santa Cruz Biotechnology, Santa Cruz, Calif.). Immune complexes were washed (150 mM NaCl, 1.5 mM MgCl2, 50 mM HEPES, pH 7.5, 10% glycerol, 0.1% Triton X-100, and 1 mM EGTA) and following SDS-PAGE, proteins were transferred to nitrocellulose membranes. Membranes were probed with an anti-phosphotyrosine antibody (Upstate, Lake Placid, N.Y. or Transduction Laboratories, Lexington, Ky.) and then stripped with Restore Western Blot Stripping Buffer (Pierce, Rockford, Ill.). Membranes were reprobed with an anti-FLT3 antibody (Santa Cruz Biotechnology). Stat5 antibodies for immunprecipitation and Western blot analysis were from Upstate Biotechnology and Transduction labs respectively.
# FLT-3-ITD = assay: FLT-3 phosphorylation in resected xenograft tumors; format: in vivo, athymic mice; details: 4 hour treatment
# Method: Tumor cells, MV411 in the example shown were implanted subcutaneously in the hindflank of athymic mice. […] For measurement of efficacy, tumor growth was measured at various subsequent time points using vernier calipers. For analysis of phosphorylation, tumors were resected following dosing (4 hours here), pulverized in liquid nitrogen and homogenized in lysis buffer. FLT-3 and Stat5 phosphorylation were measured by immunoprecipitation and Western blot analysis.
# Athymic mice were injected subcutaneously with MV411 and RS411 cells to cause tumor formation.
compound,measurement,setting,value
"CCN(CC)CCNC(=O)c1c(C)[nH]c(/C=C2\C(=O)Nc3ccc(F)cc32)c1C [Compound 1, 5-(5-Fluoro-2-oxo-1,2-dihydro-indol-3-ylidenemethyl)-2,4-dimethyl-1H-pyrrole-3-carboxylic acid(2-diethylamino-ethyl)-amide]",Stat5 activity,Stat5,inhibited
same,IL-3 dependent erk activation,erk½; IL-3 dependent,not inhibited
same,Phosphorylation of erk½,erk½; activated by FLT-3 ligand,inhibited
same,VEGF mean sd,MV4; 11; CMPD 1 0.00 uM,287.8
same,VEGF %,MV4; 11; CMPD 1 0.00 uM,83.0%
same,VEGF mean sd,MV4; 11; CMPD 1 0.01 uM,65.4
same,VEGF %,MV4; 11; CMPD 1 0.01 uM,18.9%
same,VEGF mean sd,MV4; 11; CMPD 1 0.1 uM,31.2
same,VEGF %,MV4; 11; CMPD 1 0.1 uM,9.0%
same,VEGF mean sd,MV4; 11; CMPD 1 1 uM,30.5
same,VEGF %,MV4; 11; CMPD 1 1 uM,8.8%
same,VEGF mean sd,MV4; 11; CMPD 1 10 uM,23.3
same,VEGF %,MV4; 11; CMPD 1 10 uM,6.7%
same,dose with highest efficacy on survival,[1],20 mg/kg/day
same,survival,[1]; range of doses,prolonged survival in a dose-dependent manner
same,VEGF mean sd,OC1-AML5; CMPD 1 0.00 uM,92.5
same,VEGF %,OC1-AML5; CMPD 1 0.00 uM,91.8%
same,VEGF mean sd,OC1-AML5; CMPD 1 0.01 uM,35.6
same,VEGF %,OC1-AML5; CMPD 1 0.01 uM,35.3%
same,VEGF mean sd,OC1-AML5; CMPD 1 0.1 uM,33.6
same,VEGF %,OC1-AML5; CMPD 1 0.1 uM,33.3%
same,VEGF mean sd,OC1-AML5; CMPD 1 1 uM,28.3
same,VEGF %,OC1-AML5; CMPD 1 1 uM,28.0%
same,VEGF %,OC1-AML5; CMPD 1 10 uM,15.5%
same,expansion of RS411,RS411 (wild type FLT-3),inhibited expansion
same,apoptosis,MV411 (ITD mutant FLT-3),causes apoptosis
same,Wild-type FLT-3 (inhibition of phosphorylation),"Wild-type FLT-3; RS411 cells, IP/Western",++
same,inhibition of wild-type FLT-3 phosphorylation,Wild-type FLT-3; in words,inhibits
same,activated FLT-3 in tumors,FLT-3-ITD,completely inhibited; also recorded: inhibits
